# According to patent publication US20160316732A1, “CONTROL AND CHARACTERIZATION OF PSYCHOTIC STATES” (priority 2010, published 2016):
# Key:
# [1] = tested on: layer V pyramidal neurons; assay: Responses of layer V pyramidal neurons to light flashes (ChR2 stimulation) in prefrontal slices; type: cell-based, Thy1::ChR2 transgenic mice
# [2] = tested on: layer V pyramidal neurons; assay: Responses of layer V pyramidal neurons to hyperpolarizing/depolarizing current pulses (activity-dependent depolarization); type: cell-based, Thy1::ChR2 transgenic mice; settings: for cells in which the activity-dependent depolarization and related phenomena were elicited: 5 μM (−) Quinpirole or 10 μM quinpirole, pooled; for effect on PCP-elicited activity-dependent depolarization and afterdepolarization: n=2 cells
# Method: Electrophysiological recordings monitored the cellular responses of the layer V pyramidal neurons to in vitro light stimulation when under the pharmacological conditions or treatments.
# Brain slices isolated from Thy1::ChR2 transgenic mice underwent direct current stimulation and a layer V pyramidal neuron was monitored by electrophysiological recordings for cellular responses to depolarizing current pulses in the absence or presence of 5 μM PCP.
# mice = assay: Social exploration / social behavior in mice; type: in vivo; settings: PCP 5 mg/kg alone; FIG. 4C bottom
# [3] = tested on: layer V pyramidal neurons; assay: Responses of layer V pyramidal neurons to light flashes (ChR2 stimulation) in prefrontal slices; type: cell-based, Thy1::ChR2 transgenic mice; settings: for spiking in response to ChR2 stimulation: p<0.001 vs control; for spikes at short interspike intervals: quinpirole, or haloperidol or sulpiride, FIG. 2E, n=4 cells per group
# Method: We used prefrontal slices from Thy1::ChR2 mice to study network activity evoked by light. Brain slices isolated from Thy1::ChR2 transgenic mice underwent in vitro light stimulation and a layer V pyramidal neuron was monitored by electrophysiological recordings for cellular responses to trains of light flashes (470 nm, 1 msec) in the absence of a D2 agonist (control) or presence a D2 agonist (20 μM quinpirole). The brain slice was subsequently washed to remove the quinpirole and treated with either 0.2-2 μM haloperidol or 5 μM sulpiride, both of which are known D2 antagonists. The spike rate of the layer V pyramidal neurons and the amount of information transmitted by the spike rate was quantified as well as the number of spikes as a function of interspike interval.
# [4] = tested on: layer V pyramidal neurons; assay: Whole-cell voltage-clamp of ion channel currents mediating the activity-dependent depolarization; type: cell-based, mice
# Source text: We next sought to identify possible ion channel currents mediating the activity-dependent depolarization, in whole-cell voltage-clamp.
# [5] = haloperidol (0.2-2 μM) or sulpiride (5 μM), pooled group
# [6] = haloperidol (0.2-2 μM) or sulpiride (5 μM), pooled group, p<0.01 vs control
# [7] = cells with prominent sag and rebound afterdepolarization
smiles,measurement,setting,value
"c1ccc(C2(N3CCCCC3)CCCCC2)cc1 [PCP, phencyclidine]",spiking at short interspike intervals during trains of light pulses,"[1]; PCP, Thy1::ChR2 cortical slices",suppressed spiking at short interspike intervals
same,response to depolarizing current pulses,"[2]; PCP 5 μM, FIG. 4A",exhibits an afterdepolarization and persistent firing
same,cells with activity-dependent depolarization and afterdepolarization outlasting direct stimulation,"[2]; PCP 5 μM, all layer V pyramidal neurons recorded",6/12
same,cells with activity-dependent depolarization,"[2]; PCP 5 μM, neurons with prominent sag and rebound afterdepolarization",6/9
same,cells with activity-dependent depolarization,"[2]; PCP 5 μM, neurons without prominent sag and rebound afterdepolarization",0/3
same,wide action potentials (possible dendritic Ca2+ spikes),"[2]; PCP, FIG. 4A",in some cases found to elicit wide action potentials
same,social exploration,mice,impairs social exploration
O=C(CCCN1CCC(O)(c2ccc(Cl)cc2)CC1)c1ccc(F)cc1 [haloperidol],reversal of quinpirole-elicited prolonged depolarization,"[1]; 0.2-10 μM haloperidol, washout of quinpirole and simultaneous application",9/9
same,quinpirole-elicited prolonged depolarization after washing out quinpirole,"[3]; haloperidol 1 μM, FIG. 2B",abolished
same,spiking in response to ChR2 stimulation,[3]; [5],least
same,amount of information the spike rate transmitted about the rate of light flashes,[3]; [6],lowest
same,spikes at short interspike intervals,[3],loss of spikes at short interspike intervals
same,effect on activity-dependent depolarization present in control conditions (before quinpirole),"[2]; haloperidol 0.2-2 μM, n=3","convert bistability into a more modest afterdepolarization, or block the activity dependent depolarization altogether"
same,block of the quinpirole activity-dependent depolarization,[2]; haloperidol 0.2-10 μM,9/9
CCCN1CCC[C@@H]2Cc3n[nH]cc3C[C@H]21 [quinpirole],layer V pyramidal neurons with prolonged depolarization outlasting direct stimulation after high-frequency spiking,"[3]; quinpirole 20 μM, all layer V pyramidal neurons recorded",16/26
same,amount of information the spike rate transmitted about the rate of light flashes,"[3]; quinpirole 20 μM, compared with control, p<0.05",intermediate
same,change in responses to trains of light flashes,"[3]; quinpirole 20 μM, light flashes 470 nm, 1 msec",marked change in the responses
same,spike afterhyperpolarization (AHP),"[3]; quinpirole 20 μM, single 1 msec light flash, FIG. 2F",enhanced the spike afterhyperpolarization
same,spikes at short interspike intervals,[3],loss of spikes at short interspike intervals
same,spike rate in response to ChR2 stimulation,"[3]; quinpirole, p<0.01 vs control",lower spike rates
same,cells in which the activity-dependent depolarization and related phenomena were elicited,[2]; [7],8/10
same,cells exhibiting the activity-dependent depolarization,"[2]; 20 μM quinpirole, cells with prominent sag and rebound afterdepolarization",16/17
same,cells with bistability having peaks in power spectra between 20 and 40 Hz,"[2]; quinpirole, FIG. 3F",4/6
same,cells exhibiting the activity-dependent depolarization,"[2]; quinpirole, cells without prominent sag and rebound afterdepolarization",0/9
same,cells exhibiting the activity-dependent depolarization,"[2]; quinpirole, neurons strongly expressing ChR2",14/18
same,current at −30 mV after a series of 1 msec steps to 0 mV,[4]; quinpirole 20 μM,elicited a slowly activating depolarizing current
same,tail current at −60 mV after a series of 1 msec steps to 0 mV,[4]; quinpirole 20 μM,increased a rapidly inactivating tail current
CCN1CCCC1CNC(=O)c1cc(S(N)(=O)=O)ccc1OC (stereo not shown) [sulpiride],reversal of quinpirole-elicited prolonged depolarization,"[1]; 5 μM sulpiride, simultaneous application with quinpirole",2/2
same,spiking in response to ChR2 stimulation,[3]; [5],least
same,amount of information the spike rate transmitted about the rate of light flashes,[3]; [6],lowest
same,action potential width,"[3]; quinpirole + sulpiride 5 μM, FIG. 2F",widened action potentials
same,spikes at short interspike intervals,[3],loss of spikes at short interspike intervals
same,block of the quinpirole activity-dependent depolarization,[2]; sulpiride 5 μM,2/2
same,effect on PCP-elicited activity-dependent depolarization and afterdepolarization,"[2]; sulpiride 5 μM, PCP 5 μM",not blocked
same,effect on PCP-elicited activity-dependent depolarization and afterdepolarization,"[2]; sulpiride 5 μM, PCP 5 μM, listed as sulphide",not reversed
same,effect on quinpirole-elicited currents at −30 mV and −60 mV,[4]; sulpiride 5 μM,blocked
CCCN1CCC[C@@H]2Cc3n[nH]cc3C[C@H]21 [(−) Quinpirole],cells in which the activity-dependent depolarization and related phenomena were elicited,[2]; [7],8/10
